Counter-ions that a name gives are not always drawn.
Assays:
Rat GnRH Receptor = molecular target: T1, Rat GnRH Receptor (Rattus norvegicus, UniProt P30969); assay: 125I-leuprorelin binding inhibition, rat pituitary anterior lobe membrane fraction; settings: 4° C. for 90 minutes, Hill plot
T1 construct: Anterior lobes of the pituitary glands were isolated from forty Wistar rats; from tissue; host or cells: rat (Wistar, male, 8 weeks) anterior pituitary membrane fraction
T1 sequence (P30969 1-327): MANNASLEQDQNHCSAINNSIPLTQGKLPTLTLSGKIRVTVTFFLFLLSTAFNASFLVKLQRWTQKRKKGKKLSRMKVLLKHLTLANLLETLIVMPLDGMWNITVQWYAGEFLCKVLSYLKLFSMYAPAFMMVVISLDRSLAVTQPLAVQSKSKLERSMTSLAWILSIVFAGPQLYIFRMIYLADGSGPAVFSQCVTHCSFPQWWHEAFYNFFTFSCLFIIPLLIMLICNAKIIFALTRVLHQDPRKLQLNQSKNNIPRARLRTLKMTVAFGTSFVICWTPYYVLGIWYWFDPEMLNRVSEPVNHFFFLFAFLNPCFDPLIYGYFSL
Method: (§1) (1) Preparation of ^125I-Leuprorelin
(§2) To a tube containing 10 μl of a 3×10^−4 M aqueous solution of leuprorelin and 10 μl of 0.01 mg/ml lactoperoxidase, 10 μl (37 MBq) of a solution of Na^125I was added. After stirring, 10 μl of 0.001% H2O2 was added, and a reaction was carried out at room temperature for 20 minutes. By adding 700 μl of a 0.05% TFA (trifluoroacetic acid) solution, the reaction was stopped, and the solution was purified by reversed-phase HPLC. The HPLC conditions are shown below. ^125I-leuprorelin was eluted at a retention time of 26 to 27 minutes.
(2) Preparation of a Pituitary Anterior Lobe Membrane […]
(§3) When the rat pituitary anterior lobe membrane fraction was used, the reaction was conducted at 4° C. for 90 minutes. […] After the filtration, the radioactivity of ^125I-leuprorelin remaining on the filter paper was measured with a γ-counter.
(§4) (TB−SB)/(TB−NSB)×100 (SB: radioactivity when the compound is added, TB: maximum binding radioactivity, NSB: non-specific binding radioactivity) was calculated to find the binding inhibition rate (%) of each test substance. […]

Human GnRH Receptor = molecular target: T2, Human GnRH Receptor (Homo sapiens, UniProt P30968); assay: 125I-leuprorelin binding inhibition, membrane fraction of human GnRH receptor-expressing CHO cells; settings: 25° C. for 60 minutes, Hill plot
T2 construct: expressed in transfected cells; host or cells: CHO (Chinese hamster ovary) cells
T2 sequence (P30968 1-328): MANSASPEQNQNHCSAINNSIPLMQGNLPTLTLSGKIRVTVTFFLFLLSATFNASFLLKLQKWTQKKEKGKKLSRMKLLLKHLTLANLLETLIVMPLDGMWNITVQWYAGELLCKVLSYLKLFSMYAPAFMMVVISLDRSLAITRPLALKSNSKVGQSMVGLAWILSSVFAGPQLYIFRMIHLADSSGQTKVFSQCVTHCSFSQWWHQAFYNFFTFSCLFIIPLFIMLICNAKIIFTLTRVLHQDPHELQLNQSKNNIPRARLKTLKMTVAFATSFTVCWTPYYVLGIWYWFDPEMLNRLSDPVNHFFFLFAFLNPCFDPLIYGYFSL
Method: as §1, §2
(3) Preparation of a CHO (Chinese Hamster Ovarian) Cell Membrane Fraction Containing Human GnRH Receptor
Human GnRH receptor-expressing CHO cells (10^9 cells) were suspended in phosphate-buffered saline supplemented with 5 mM EDTA (PBS-EDTA) and centrifuged at 100×g for 5 minutes. […]
as §3, §4

Row | SMILES | IC50 (Rat GnRH Receptor) | IC50 (Human GnRH Receptor) | melting point
1 | CCNC(=O)Nc1ccc(-c2sc3c(c2CN(C)CCOC(C)C)c(=O)n(-c2ccccc2)c(=O)n3Cc2c(F)cccc2F)cc1 [Example 110, N-[4-(1-(2,6-difluorobenzyl)-[(2-(2-propoxy)ethyl(methyl)amino}methyl]-2,4-dioxo-3 phenyl-1,2,3,4-tetrahydrothieno[2,3-d]pyrimidin-6-yl)phenyl]-N′-ethylurea] | 0.2 µM | < 0.0001 µM | 224 °C
2 | CCNC(=O)Nc1ccc(-c2sc3c(c2CN(C)CCOC)c(=O)n(-c2ccccc2)c(=O)n3Cc2c(F)cccc2F)cc1 [Example 112, N-[4-(1-(2,6-difluorobenzyl)-5-{[(2-methoxyethyl)(methyl)amino]methyl}-2,4-dioxo-3-phenyl-1,2,3,4-tetrahydrothieno[2,3-d]pyrimidin-6-yl)phenyl]-N′-ethylurea 1 hydrochloride] | 0.2 µM | 0.0001 µM | –
